pIC50: −log10 of the molar value. Records with an inconclusive call do not appear.
The compounds below were run against Virion infectivity factor (Human immunodeficiency virus type 1 group M subtype B (isolate BH10)) + Virion infectivity factor (Human immunodeficiency virus type 1 group M subtype B (isolate BRU/LAI)) + Virion infectivity factor (Human immunodeficiency virus type 1 group M subtype B (isolate PCV12)) + Virion infectivity factor (Human immunodeficiency virus type 1 group M subtype B (isolate HXB2)) + DNA dC->dU-editing enzyme APOBEC-3G (Homo sapiens) (UniProt P69720+P69721+P69722+P69723+Q9HC16) (assay: inhibitors of Vif binding to APOBEC3G peptide, primary screen, biochemical, TR-FRET, GST-Vif 1-94, biotin-A3G peptide, dose response retest (AID 1117319);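 further: Vif residues 1-94 fused to GST binding biotinylated APOBEC3G peptide 110-148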).

Row | Structure (SMILES) | pIC50
1 | Oc1ccc(/C=N/NC2=NCCCCC2)c(O)c1 | 5.31
2 | COc1ccc(OC)c(S(=O)(=O)Nc2ccc(O)c3ccccc23)c1 | 5.06
3 | CO[C@H]1C=CO[C@@]2(C)Oc3c(C)c(O)c4c(O)c(c(C=NN5CCN(C)CC5)c(O)c4c3C2=O)NC(=O)C(C)=CC=C[C@H](C)[C@H](O)[C@@H](C)[C@@H](O)[C@@H](C)[C@H](OC(C)=O)[C@@H]1C | 5.11
4 | Cc1cccc(-n2c(N)cc(=O)nc2SCC(=O)NC2CCCCC2)c1 | 4.03
5 | COc1cc(NCCCCCCN)c2ncccc2c1OC | 5.45
6 | NS(=O)(=O)c1ccc(N=Nc2ccc(=O)[nH]c2O)cc1 | 5.28
7 | O=c1[nH]c2ccccc2n2c(-c3ccccc3)nnc12 | 4.81
8 | O=C1OC(c2ccc3ccccc3c2O)(c2ccc3ccccc3c2O)c2ccccc21 | 5.03
9 | COc1ccc(-c2cc(C(=O)N/N=C/c3ccc(OC)c(COCC(F)(F)C(F)F)c3)c3ccccc3n2)c(OC)c1 | 4.58
10 | CC(C)N1C(=O)/C(=C/C=C/c2ccco2)C(=O)N(Cc2ccco2)C1=O | 5.66
11 | CC(=O)Nc1ccc(S(=O)(=O)NCCSCc2ccco2)cc1 | 4.81
12 | O=C(/C=C/c1ccc(O)c(O)c1)OC1C(O)CC(OC(=O)/C=C/c2ccc(O)c(O)c2)(C(=O)O)CC1O (stereo not drawn) | 4.79
13 | Cc1cc(C)c(C(=O)/C=C/c2ccco2)c(=O)[nH]1 | 5.06
14 | C(=C\c1ccco1)/C=N/n1cnnc1 | 5.87
15 | Cc1c(NC(=O)c2cc(-c3cccs3)on2)c(=O)n(-c2ccccc2)n1C | 4.40
16 | CCOc1ccc(N(CC(=O)NC(C)(C)C)S(=O)(=O)c2c(C)noc2C)cc1 | 5.29
17 | Cc1ccc(-n2nc(C)c(C3C(C#N)=C(N)Oc4c3c(=O)oc3ccccc43)c2Cl)cc1 (stereo not drawn) | 4.96
18 | CCCSC1=N/C(=C\C=C\c2ccco2)C(=O)S1 | 5.42
19 | COc1cc(NC(=O)c2cc3nc(C)cc(C)n3n2)c(OC)cc1Cl | 4.04
20 | COC1=C(N)C(=O)c2nc(-c3nc(C(=O)O)c(C)c(-c4ccc(OC)c(OC)c4O)c3N)ccc2C1=O | 4.97
21 | CCCC(=O)NC1=C(Cl)C(=O)c2ccccc2C1=O | 4.88
22 | O=S(=O)(Nc1nccs1)c1ccc(Nc2nnc(-c3ccccc3)c3ccccc23)cc1 | 4.07
23 | CCOc1ccccc1C(=O)NCC(=O)OCC(=O)NCCc1ccc(S(N)(=O)=O)cc1 | 4.12
24 | O=C1NC(=S)S/C1=C\c1ccc(SCc2ccco2)o1 | 6.09
25 | COc1ccc2c(c1)c(=O)oc1cc(OCC(=O)N3CCC(C)CC3)ccc12 | 4.26
26 | CC1=CN2C(=N)/C(=C/c3ccc([N+](=O)[O-])o3)C(=O)N=C2S1 | 5.54

Row | Structure (SMILES) | pIC50
27 | CN1CCN(c2ccc(N)cc2)CC1 | 4.81
28 | Cc1[nH]c2ccccc2c1C(=O)Cn1c(=O)oc2ccccc21 | 4.02
29 | CC(=O)NN1C(=O)/C(=C\c2ccc(Br)o2)SC1=S | 5.24
30 | COc1cc(OC)c2c(O)c3c(c(-c4c5c(c(O)c6c(OC)cc(OC)cc46)CO[C@@H](C)[C@H]5O)c2c1)[C@H](O)[C@H](C)OC3 | 5.34
31 | Cc1oc(/N=C/c2cccc3ccccc23)c(C#N)c1C | 4.28
32 | CSc1oc(-c2ccco2)nc1S(=O)(=O)c1ccccc1 | 4.50
33 | C=C(C)C(=O)Nc1cccc(C2=NOC3(C2)C[C@@H](C(N)=O)N(C(=O)/C=C/CC)C3)c1 (stereo partly drawn) | 5.48
34 | CCN(CC)c1ccc(N=Cc2ccc(N(CC)CC)cc2O)cc1 | 4.30
35 | O=C(CSc1nnnn1-c1ccccc1)Nc1ncc2c(n1)CC(c1ccco1)CC2=O (stereo not drawn) | 4.90
36 | O=C(O)c1ccc(Sc2nnnn2-c2ccccc2)c([N+](=O)[O-])c1 | 4.05
37 | CCOC(=O)C1=C(N)n2c(s/c(=C\c3ccco3)c2=O)=C(C(=O)OCC)C1c1ccco1 (stereo not drawn) | 5.85
38 | CCc1nc2oc3cc(OC)ccc3c(=O)c2c(=O)n1Cc1ccco1 | 4.40
39 | Oc1ccccc1/C=N/c1c(-c2ccco2)nc2ccccn12 | 6.32
40 | COC(=O)c1ccc(C(=O)OC)c(NC(=O)Cc2cccs2)c1 | 5.37
41 | COC(=O)Cc1cc(=O)n(-c2nc3ccccc3[nH]2)[nH]1 | 4.66
42 | COC(=O)c1ccccc1NC(=O)C1CCCC1 | 6.26
43 | CC(=O)c1ccc(S(=O)(=O)Nc2cccc(-n3cnnn3)c2)cc1 | 4.92
44 | Cc1cc(C)cc(NC(=O)CSc2nc3c(c(=O)n2C)SC(C)C3)c1 (stereo not drawn) | 4.66
45 | COc1cccc(-c2nn(C)c3sc(C(=O)Nc4ccc5c(c4)OCCO5)cc23)c1 | 4.29
46 | Cn1nnnc1SCC(=O)NCc1ccco1 | 4.37
47 | COc1cc(NC(=O)CS(=O)(=O)c2ccc(C)cc2)cc(OC)c1OC | 4.63
48 | Cc1ccc(C)n1Cc1ccc(C(=O)O)cc1 | 5.81
49 | CCN(CC)c1ccc(N=Cc2c(O)n(CCc3ccc(OC)c(OC)c3)c(=O)[nH]c2=O)cc1 | 4.36
50 | CCOC(=O)Cn1nnnc1C(C(C)C)N(Cc1cc2c(C)cc(C)cc2[nH]c1=O)C1CCCC1 (stereo not drawn) | 4.34
51 | O=C1NC(=O)N(c2ccccc2)C(=O)/C1=C\C=C\c1ccccc1 | 4.38
52 | COc1cc(CC(=O)OCC(=O)Nc2cccc([N+](=O)[O-])c2)cc(OC)c1OC | 4.93

Row | Structure (SMILES) | pIC50
53 | CC(=O)Nc1ccc(S(=O)(=O)Nc2nc3ccccc3nc2Nc2ccc(C(=O)O)c(O)c2)cc1 | 4.76
54 | O=C(O)c1cccc2cccc(-c3c4ccc(=O)c(O)c-4oc4c(O)c(O)ccc34)c12 | 6.28
55 | CCC(C)NC(=O)Cc1cn(C)c2ccccc12 (stereo not drawn) | 4.06
56 | Cc1c(C)n(C(=O)CSc2nc3ccccc3[nH]2)c2ccccc12 | 4.40
57 | CCc1c(C)sc(NC(=O)OC)c1C(=O)N1CCCCC1 | 4.37
58 | Cc1[nH]c2ccccc2c1Cc1nnc(SCc2ccccc2)o1 | 4.15
59 | Cc1ccc(/C=C2\SC(=S)N(c3cccnc3)C2=O)o1 | 5.16
60 | C(=C\c1ccco1)/c1ccc2ccccc2n1 | 5.29
61 | O=C(N/N=C/c1cn(Cc2cccc(F)c2)c2ccccc12)c1cc(O)cc(O)c1 | 5.46
62 | Cn1c(SCC(=O)c2cc(Cl)c(Cl)s2)nnc1-c1ccco1 | 4.51
63 | CCOC(=O)C1=C(Cc2ccc(Cl)cc2)C(=O)c2ccccc2C1=O | 4.46
64 | CCN(CC)C(=O)c1ccc2c(c1)C1C=CCC1C(C(=O)O)N2 (stereo not drawn) | 5.55
65 | CC(=O)c1ccc(NC(=O)c2ccc3nc(-c4ccco4)c(-c4ccco4)nc3c2)cc1 | 5.86
66 | COC(=O)c1ccccc1NC(=O)CCS(=O)(=O)c1ccc(Br)cc1 | 5.83
67 | COc1ccc(NC(=O)CN(C)C(=O)c2cc(-c3ccco3)nc3ccccc23)cc1 | 5.31
68 | Cc1ccc(NC(=O)CN2C(=O)N/C(=C/c3ccco3)C2=O)cc1 | 5.70
69 | c1coc(-c2nc(-c3ccco3)c(-c3ccco3)nc2-c2ccco2)c1 | 6.46
70 | COc1ccc(OC)c(NC(=O)NCc2ccc(F)cc2)c1 | 4.23
71 | Cc1cc(-c2n[nH]c(=S)n2/N=C/C=C/c2ccco2)n[nH]1 | 5.22
72 | O=C1c2sc3nc4n(c(=O)c3c2CCC1Br)CCCCC4 (stereo not drawn) | 6.27
73 | CN(C)[C@@H]1C(=O)C(C(N)=O)=C(O)[C@@]2(O)C(=O)C3=C(O)c4c(O)ccc(Cl)c4[C@@](C)(O)C3C[C@@H]12 (stereo partly drawn) | 5.15
74 | O=C(Cc1cc(=O)[nH][nH]1)N/N=C/C=C/c1ccccc1 | 4.58
75 | Cc1ccc2c(c1)C1C=CCC1C(C(=O)O)N2 (stereo not drawn) | 6.02
76 | C[c-]1[c-](C)[c-](C)[c-](C)[c-]1C.[Fe].c1cc2nccc(N3CCCC3)[c-]2c1 (stereo not drawn) | 5.69
77 | CCN(CC)c1ccc(C(=C2C=CC(=[N+](CC)CC)C=C2)c2ccccc2)cc1 | 4.93
78 | COc1cc2c3c(c1OC)C1(C=CC(=O)C=C1)CC3N(C(=O)CCC(=O)O)CC2 (stereo not drawn) | 4.88

Source: PubChem BioAssay AID1117319 (Southern Research Institute, 2015)
